Measurements as given in patent US20240261258A1, “Presurgical Perineural Administration of Resiniferatoxin For Reduction of Post-Operative Pain” (Sorrento Therapeutics, Inc., priority 2021, published 2024).
Marks after values point to notes of the source that are not given here.

Legend:
[1] = tested on: healthy dogs undergoing TPLO surgery; experiment: Post-surgical evaluations (weight bearing, withdrawal reflex, proprioception, VAS, GCPS, injection and surgical site); format: in vivo, dog
Description: Before the subjects underwent surgery, baseline data including a physical examination, hindlimb motor evaluation, hindlimb sensory evaluation, site of injection evaluation, and surgical site evaluation were collected. During the 8-week post-operative follow-up period on day 1, 2, 3, 14, 28, and 56 all the above parameters were reevaluated by a researcher who was blinded to the treatment.
After observing the animal in its cage and after evaluating the subject walking, the overall pain was scored using a visual analog scale (VAS) and the short form of the Glasgow composite pain scale (GCPS). The VAS consisted of a straight line 10 cm long with the left end, 0 cm, indicating no pain and the right end, 10 cm, indicating unbearable pain. The user placed a mark on the line that best represented the intensity of the subject's pain. Animals with a VAS greater than 4 cm and a GCPS greater that 6 were considered painful and received intramuscular hydromorphone at 0.1 mg/kg.
The injection site of RTX or local anesthetic was evaluated by visual examination (normal, red, swollen) and palpation (no pain, mild, severe). The surgical site was evaluated by visual examination (normal, red, swollen) and with the aid of an algometer. With the dog in lateral recumbency, the tip of the algometer was placed on the surgical site and pressure was manually applied until the animal moved the leg. During the baseline data collection, several measurements were taken until 3 measurements were within ±1 Newton (N). The number recorded corresponded to the average of these 3 values. After surgery, the force was applied only once. Data were collected from both the left (treated) and the right (non-treated) hindlimbs.
The withdrawal reflex and proprioception were assessed and scored as normal, decreased, or absent. The motor function was evaluated by encouraging the dog to stand and walk. Weight bearing standing and walking was scored as: normal, decreased (dog uses the leg but prefers the non-operated leg), or absent (dog avoids using the operated leg).

[2] = tested on: left stifle joint; experiment: Necropsy and histopathology of stifle joints; format: in vivo, dog; details: for Bone remodeling with increased osteoblasts/osteoclasts: Mild, number of dogs / Bone remodeling with increased osteoblasts/osteoclasts: Minimal, number of dogs / Bone remodeling with increased osteoblasts/osteoclasts: Moderate, number of dogs / Bone remodeling with increased osteoblasts/osteoclasts: number of dogs with the finding / Collagen (picosirius red stain): number of dogs with the finding / Non-epiphyseal cartilage: Mild, number of dogs / Non-epiphyseal cartilage: Minimal, number of dogs / Non-epiphyseal cartilage: Moderate, number of dogs / Non-epiphyseal cartilage: number of dogs with the finding / Screw holes with intraluminal hemorrhage: Mild, number of dogs / Screw holes with intraluminal hemorrhage: number of dogs with the finding / Soft tissue mononuclear inflammation: Mild, number of dogs / Soft tissue mononuclear inflammation: Minimal, number of dogs / Soft tissue mononuclear inflammation: number of dogs with the finding / Synovial hypertrophy/hyperplasia: Mild, number of dogs / Synovial hypertrophy/hyperplasia: Minimal, number of dogs / Synovial hypertrophy/hyperplasia: Moderate, number of dogs / Synovial hypertrophy/hyperplasia: number of dogs with the finding: left stifle joint, 4 examined; for Average collagen score left leg (picosirius red): operated left stifle; for Average collagen score right leg (picosirius red): un-operated right stifle
Description: These findings were confirmed during necropsy.
It was characterized by plump, variably piled synoviocytes with slightly more prominent fibrillary projections into the synovial spaces as compared to the control right stifle joints. Some control un-operated right stifle joints also occasionally had minimal synovial hypertrophy/hyperplasia typified by slightly plump, variably piled synoviocytes, but lacked increased fibrillary projections.
Soft tissue mononuclear inflammation was seen as small collections of lymphocytes, macrophages, and/or plasma cells or increased numbers of diffusely scattered mononuclear cells. The inflammation was commonly seen in the synovial lining subjacent to the synoviocytes, or in soft tissues that remained attached to the bone/joint. The incidences and average severity grades were not remarkably different between left joint groups.
Bone remodeling with increased osteoblasts/osteoclasts was characterized by irregular areas of bone/callous formation. Some areas of bone remodeling had increased cellularity due to increased numbers of osteoblasts and osteoclasts that outlined bone.
Presence of cartilage on the operated sides was presumptively interpreted to represent areas of residual cartilage in the physis which had been shifted/transposed by the TPLO surgery, and/or new cartilage formation. The amount of cartilage in each section was subjectively graded using the H&E and toluidine blue stains. […] Any differences could also be influenced by differences in physeal cartilage amounts/extent of physeal closure between dogs, and by plane-of-section variabilities.
A collagen score for each of the stifle joint slides stained with picosirius red was assigned based on the qualitative estimate of collagen present on the slide. The average of the three slides per joint was recorded. An overall collagen score for the left and right stifle joints for each group was calculated by averaging the individual collagen scores. […] The average collagen scores of groups 1-4 for the operated left legs were slightly higher than the corresponding un-operated right leg group average collagen scores. Higher collagen in the operated legs seemed consistent with post-surgical healing processes.

[3] = Group 1 High, 25 μg total F/Sc nerve block
[4] = Group 2 Low, 6.25 μg total F/Sc nerve block
[5] = all subjects and timepoints, cutoff for painful

## C=C(C)[C@]12C[C@@H](C)[C@@]34O[C@](Cc5ccccc5)(O[C@@H]1[C@@H]3C=C(COC(=O)Cc1ccc(O)c(OC)c1)C[C@]1(O)C(=O)C(C)=C[C@@H]41)O2 [RTX, resiniferatoxin]
[1]; [3]
  Use of leg within 2 hours of surgery: Intermittent toe touching (dogs/group): touching: 2/4
  Use of leg within 2 hours of surgery: Normal (dogs/group): Normal: 2/4
[1]; [4]
  Use of leg within 2 hours of surgery: Absent (dogs/group): Absent: 1/4
  Use of leg within 2 hours of surgery: Intermittent toe touching (dogs/group): touching: 3/4;
[1]; Group 3 Local, 50 μg on bone incision + 5 mg bupivacaine block
  Use of leg within 2 hours of surgery: Absent (dogs/group): Absent: 4/4
[1]; a subject in group 1, both resolved within 24 hours
  Injection site finding in one subject: minimal reaction upon palpation at day 1 and a small red area at day 3
[1]; a subject in group 3
  Injection site finding in one subject: small non-painful red area at day 14
[1]; all animals
  Injection site appearance: normal
[1]; all dogs at all time points
  Withdrawal reflex: normal
[1]; all dogs, regardless of group, after surgery
  Time for redness and swollen areas around the surgical incision to resolve: 2 to 3 days
[1]; [5]
  GCPS (short form Glasgow composite pain scale) score: < 6
  VAS pain score: < 4 cm
[1]; day 14, 28, and 56, all dogs except for one in group 2 (interdigital cyst)
  Weight bearing scores: normal scores
[1]; perineural injection at 6.25 μg and 25 μg RTX total in dogs undergoing TPLO surgery
  Efficacy on post-operative pain: short-term efficacy in treating post-operative pain
[2]; all RTX groups, day 56
  Microscopic changes in the left stifle joints: No microscopic changes in the left stifle joints suggestive of RTX-related toxicity
[2]; all stifles, confirmed during necropsy
  Callus at removal of the TPLO plate: normal callus
[2]; Group 1 High (25 μg)
  Bone remodeling with increased osteoblasts/osteoclasts: Mild, number of dogs: 2
  Bone remodeling with increased osteoblasts/osteoclasts: Minimal, number of dogs: 2
  Bone remodeling with increased osteoblasts/osteoclasts: Moderate, number of dogs: 0
  Bone remodeling with increased osteoblasts/osteoclasts: number of dogs with the finding: (4)
  Collagen (picosirius red stain): number of dogs with the finding: (4)
  Non-epiphyseal cartilage: Mild, number of dogs: 1
  Non-epiphyseal cartilage: Minimal, number of dogs: 1
  Non-epiphyseal cartilage: Moderate, number of dogs: 2
  Non-epiphyseal cartilage: number of dogs with the finding: (4)
  Screw holes with intraluminal hemorrhage: Mild, number of dogs: 4
  Screw holes with intraluminal hemorrhage: number of dogs with the finding: (4)
  Soft tissue mononuclear inflammation: Mild, number of dogs: 1
  Soft tissue mononuclear inflammation: Minimal, number of dogs: 3
  Soft tissue mononuclear inflammation: number of dogs with the finding: (4)
  Synovial hypertrophy/hyperplasia: Mild, number of dogs: 4
  Synovial hypertrophy/hyperplasia: Minimal, number of dogs: 0
  Synovial hypertrophy/hyperplasia: Moderate, number of dogs: 0
  Synovial hypertrophy/hyperplasia: number of dogs with the finding: (4)
  Average collagen score left leg (picosirius red): 2.9
  Average collagen score right leg (picosirius red): 2.3
[2]; Group 2 Low (6.25 μg)
  Bone remodeling with increased osteoblasts/osteoclasts: Mild, number of dogs: 2
  Bone remodeling with increased osteoblasts/osteoclasts: Minimal, number of dogs: 1
  Bone remodeling with increased osteoblasts/osteoclasts: Moderate, number of dogs: 1
  Bone remodeling with increased osteoblasts/osteoclasts: number of dogs with the finding: (4)^a
  Collagen (picosirius red stain): number of dogs with the finding: (4)^a
  Non-epiphyseal cartilage: Mild, number of dogs: 1
  Non-epiphyseal cartilage: Minimal, number of dogs: 1
  Non-epiphyseal cartilage: Moderate, number of dogs: 2
  Non-epiphyseal cartilage: number of dogs with the finding: (4)^a
  Screw holes with intraluminal hemorrhage: Mild, number of dogs: 4
  Screw holes with intraluminal hemorrhage: number of dogs with the finding: (4)^a
  Soft tissue mononuclear inflammation: Mild, number of dogs: 4
  Soft tissue mononuclear inflammation: Minimal, number of dogs: 0
  Soft tissue mononuclear inflammation: number of dogs with the finding: (4)^a
  Synovial hypertrophy/hyperplasia: Mild, number of dogs: 3
  Synovial hypertrophy/hyperplasia: Minimal, number of dogs: 0
  Synovial hypertrophy/hyperplasia: Moderate, number of dogs: 1
  Synovial hypertrophy/hyperplasia: number of dogs with the finding: (4)^a
  Average collagen score left leg (picosirius red): 2.6
  Average collagen score right leg (picosirius red): 2.3
[2]; Group 3 Local (50 μg)
  Bone remodeling with increased osteoblasts/osteoclasts: Mild, number of dogs: 2
  Bone remodeling with increased osteoblasts/osteoclasts: Minimal, number of dogs: 0
  Bone remodeling with increased osteoblasts/osteoclasts: Moderate, number of dogs: 2
  Bone remodeling with increased osteoblasts/osteoclasts: number of dogs with the finding: (4)
  Collagen (picosirius red stain): number of dogs with the finding: (4)
  Non-epiphyseal cartilage: Mild, number of dogs: 2
  Non-epiphyseal cartilage: Minimal, number of dogs: 0
  Non-epiphyseal cartilage: Moderate, number of dogs: 2
  Non-epiphyseal cartilage: number of dogs with the finding: (4)
  Screw holes with intraluminal hemorrhage: Mild, number of dogs: 4
  Screw holes with intraluminal hemorrhage: number of dogs with the finding: (4)
  Soft tissue mononuclear inflammation: Mild, number of dogs: 2
  Soft tissue mononuclear inflammation: Minimal, number of dogs: 2
  Soft tissue mononuclear inflammation: number of dogs with the finding: (4)
  Synovial hypertrophy/hyperplasia: Mild, number of dogs: 3
  Synovial hypertrophy/hyperplasia: Minimal, number of dogs: 0
  Synovial hypertrophy/hyperplasia: Moderate, number of dogs: 1
  Synovial hypertrophy/hyperplasia: number of dogs with the finding: (4)
  Average collagen score left leg (picosirius red): 3.0
  Average collagen score right leg (picosirius red): 2.4
